Measured values as given in the NIST ThermoML archive (doi:10.1021/je700190m).
± gives the expanded uncertainty stated by the source.

Experiment: wn = mass fraction of the nth substance listed
Settings: 310 K; 101.3 kPa; Liquid; Concentric cylinders viscometry; w1 = 0.1

In order of falling viscosity:
1. O.O.O.O.O.OC[C@H]1O[C@H](OC[C@H]2O[C@H](O[C@]3(CO)O[C@H](CO)[C@@H](O)[C@@H]3O)[C@H](O)[C@@H](O)[C@@H]2O)[C@H](O)[C@@H](O)[C@H]1O [D-raffinose, pentahydrate] + O  1.22 ± 0.25 mPa·s
2. O=C[C@H](O)[C@@H](O)[C@H](O[C@@H]1O[C@H](CO)[C@H](O)[C@H](O)[C@H]1O)[C@H](O)CO [4-O-β-D-galactopyranosyl-D-glucose] + O  1.16 ± 0.23 mPa·s
3. O.O.OC[C@H]1O[C@H](O[C@H]2O[C@H](CO)[C@@H](O)[C@H](O)[C@H]2O)[C@H](O)[C@@H](O)[C@@H]1O [D-(+)-trehalose dihydrate] + O  1.1 ± 0.22 mPa·s
4. OC[C@@H](O)[C@@H](O[C@H]1O[C@H](CO)[C@@H](O)[C@H](O)[C@H]1O)[C@H](O)[C@@H](O)CO [4-O-α-D-glucopyranosyl-D-glucitol] + O  1.08 ± 0.22 mPa·s
5. OC[C@H]1O[C@@](CO)(O[C@H]2O[C@H](CO)[C@@H](O)[C@H](O)[C@H]2O)[C@@H](O)[C@@H]1O [D-sucrose] + O  1.06 ± 0.21 mPa·s
6. O=C(CO)[C@@H](O)[C@H](O)[C@@H](CO)O[C@H]1O[C@H](CO)[C@@H](O)[C@H](O)[C@H]1O [leucrose] + O  1.05 ± 0.21 mPa·s
7. OC[C@@H](O)[C@H](O)[C@@H](O)CO [xylitol] + O  1.03 ± 0.21 mPa·s
8. OC[C@@H](O)[C@@H](O)[C@H](O)[C@H](O)CO [mannitol] + O  1.03 ± 0.21 mPa·s
9. OC[C@@H](O)[C@@H](O)[C@H](O)[C@@H](O)CO [D-sorbitol] + O  1.02 ± 0.21 mPa·s
10. O=C[C@H](O)[C@@H](O)[C@H](O)[C@H](O)CO [D-glucose] + O  1 ± 0.2 mPa·s
